Data: ChEMBL document CHEMBL2321705, “Novel diaryl ureas with efficacy in a mouse model of malaria” (Bioorg Med Chem Lett, 2013)
The source made the active and inactive calls. The calls are words filed in the database; no cut-off is given here.

System: Plasmodium falciparum
Experiment: Antimalarial activity against Plasmodium falciparum delta pfpm1 assessed as growth inhibition
Type: functional, organism-based

Compound	IC50	IC90
O=C(Nc1ccc(Cl)c(C(F)(F)F)c1)Nc1cc(C(F)(F)F)ccc1Oc1ccc(Cl)cc1Cl	70 nM	88 nM

System: Plasmodium falciparum
Experiment: Antimalarial activity against chloroquine-resistant Plasmodium falciparum Dd2 assessed as growth inhibition
Type: functional, organism-based

Compound	IC50	IC90
O=C(Nc1ccc(Cl)c(C(F)(F)F)c1)Nc1cc(C(F)(F)F)ccc1Oc1ccc(Cl)cc1Cl	42 nM	83 nM

System: Plasmodium falciparum
Experiment: Antimalarial activity against Plasmodium falciparum Dd2 assessed as inhibition of parasite growth
Type: functional, organism-based

Compound	EC50
O=C(Nc1ccc(Oc2ccc(Cl)cc2Cl)c(C(F)(F)F)c1)Nc1ccccc1Cc1ccccc1	0.6 µg/mL
O=C(Nc1cc(C(F)(F)F)ccc1Oc1ccc(Cl)cc1Cl)Nc1cccc2ccccc12	0.81 µM
Clc1ccc(Oc2ccc(Cl)cc2NCc2ccccc2)c(Cl)c1	9.4 µM
O=C(Nc1ccc([N+](=O)[O-])c(C(F)(F)F)c1)Nc1cc(C(F)(F)F)ccc1Oc1ccc(Cl)cc1Cl	0.072 µM
O=C(O)c1cc(Cl)ccc1Oc1ccc(Cl)cc1Cl	> 150 µM
O=C(Nc1ccc(Cl)c(Cl)c1)Nc1cc(Cl)ccc1Oc1ccc(Cl)cc1Cl	2.5 µM
NC(=O)c1cc(Cl)ccc1Oc1ccc(Cl)cc1Cl	60 µM
O=C(Nc1ccc(-c2ccccc2)cc1)Nc1cc(C(F)(F)F)ccc1Oc1ccc(Cl)cc1Cl	0.29 µg/mL
O=C(Nc1ccc(Oc2ccc(Cl)cc2O)c(Cl)c1)N1CCOCC1	100 µM
CN(C)c1ccc(NC(=O)Nc2cc(C(F)(F)F)ccc2Oc2ccc(Cl)cc2Cl)cc1	1.8 µg/mL
O=C(Nc1ccc2ccccc2c1)Nc1cc(C(F)(F)F)ccc1Oc1ccc(Cl)cc1Cl	0.41 µM
N#Cc1cccc(NC(=O)Nc2cc(C(F)(F)F)ccc2Oc2ccc(Cl)cc2Cl)c1	0.14 µg/mL
O=C(Nc1ccc(F)c(C(F)(F)F)c1)Nc1cc(C(F)(F)F)ccc1Oc1ccc(Cl)cc1Cl	0.15 µM
O=C(Nc1cc(Cl)cc(Cl)c1)Nc1cc(C(F)(F)F)ccc1Oc1ccc(Cl)cc1Cl	0.046 µg/mL
N#Cc1ccc(NC(=O)Nc2cc(C(F)(F)F)ccc2Oc2ccc(Cl)cc2Cl)cc1	0.11 µg/mL
O=C(Nc1cc(C(F)(F)F)ccc1Oc1ccc(Cl)cc1Cl)Nc1ccccc1-c1ccccc1	0.9 µg/mL
O=C(Nc1ccc2c(c1)OCO2)Nc1cc(C(F)(F)F)ccc1Oc1ccc(Cl)cc1Cl	1.2 µg/mL
O=C(Nc1cccnc1)Nc1cc(C(F)(F)F)ccc1Oc1ccc(Cl)cc1Cl	1 µg/mL
CC(=O)Nc1cc(Cl)ccc1Oc1ccc(Cl)cc1Cl	48 µM
O=C(Nc1cccc(S(=O)(=O)C(F)(F)F)c1)Nc1cc(C(F)(F)F)ccc1Oc1ccc(Cl)cc1Cl	0.077 µg/mL
CC(C)(N)c1cc(Cl)ccc1Oc1ccc(Cl)cc1Cl	1.8 µM
N#Cc1cc(Cl)ccc1Oc1ccc(Cl)cc1Cl	43 µM
COc1ccc(NC(=O)Nc2cc(C(F)(F)F)ccc2Oc2ccc(Cl)cc2Cl)cc1C(F)(F)F	0.18 µM

Compound	EC50
NC(=O)Nc1ccc(Oc2ccc(Cl)cc2O)c(Cl)c1	100 µM
O=C(Nc1ccc(Cc2ccccc2)cc1)Nc1cc(C(F)(F)F)ccc1Oc1ccc(Cl)cc1Cl	0.3 µg/mL
O=C(Nc1ccc(Cc2ccccc2)cc1)Nc1ccc(Oc2ccc(Cl)cc2Cl)c(C(F)(F)F)c1	1.2 µg/mL
N#Cc1ccc(NC(=O)Nc2cc(C(F)(F)F)ccc2Oc2ccc(Cl)cc2Cl)cc1C#N	0.14 µM
O=C(Nc1ccc(Cl)c(C(F)(F)F)c1)Nc1cc(C(F)(F)F)ccc1Oc1ccc(Cl)cc1Cl	0.055 µM
NC(=O)Nc1cc(Cl)ccc1Oc1ccc(Cl)cc1Cl	18 µM
COc1cc(Cl)ccc1Oc1ccc(Cl)cc1Cl	76 µM
Nc1cc(Cl)ccc1Oc1ccc(Cl)cc1Cl	55 µM
Nc1ccc(NC(=O)Nc2cc(C(F)(F)F)ccc2Oc2ccc(Cl)cc2Cl)cc1C(F)(F)F	3.6 µM
O=C(Nc1ccccc1)Nc1cc(Cl)ccc1Oc1ccc(Cl)cc1Cl	1.2 µM
O=C(Nc1cc(C(F)(F)F)ccc1Oc1ccc(Cl)cc1Cl)NC1c2ccccc2-c2ccccc21	1.4 µg/mL
NCc1cc(Cl)ccc1Oc1ccc(Cl)cc1Cl	4.3 µM
O=C(Nc1ccc(Cl)c(Cl)c1)Nc1cc(C(F)(F)F)ccc1Oc1ccc(Cl)cc1Cl	0.2 µM
O=C(NCc1ccco1)Nc1cc(C(F)(F)F)ccc1Oc1ccc(Cl)cc1Cl	2.6 µg/mL
O=C(Nc1cc(C(F)(F)F)cc(C(F)(F)F)c1)Nc1cc(C(F)(F)F)ccc1Oc1ccc(Cl)cc1Cl	0.044 µg/mL
O=C(Nc1cc(C(F)(F)F)ccc1Oc1ccc(Cl)cc1Cl)Nc1cc(C(F)(F)F)ccc1N1CCCCC1	2.7 µg/mL
O=C(Nc1ccc(Cl)cc1)Nc1cc(Cl)ccc1Oc1ccc(Cl)cc1Cl	5 µM
CN(C(=O)N(C)c1ccc(Cl)c(C(F)(F)F)c1)c1cc(Oc2ccc(Cl)cc2Cl)cc(C(F)(F)F)c1	2.4 µg/mL
CS(=O)(=O)Nc1cc(Cl)ccc1Oc1ccc(Cl)cc1Cl	60 µM
N#Cc1ccc(NC(=O)Nc2cc(C(F)(F)F)ccc2Oc2ccc(Cl)cc2Cl)cc1C(F)(F)F	0.075 µM
O=S(=O)(Nc1cc(Cl)ccc1Oc1ccc(Cl)cc1Cl)c1ccccc1	5.1 µM
O=C(Nc1cccc(Cc2ccccc2)c1)Nc1cc(C(F)(F)F)ccc1Oc1ccc(Cl)cc1Cl	0.3 µg/mL
O=C(Nc1cccc(Oc2ccccc2)c1)Nc1cc(C(F)(F)F)ccc1Oc1ccc(Cl)cc1Cl	0.2 µg/mL

System: Plasmodium falciparum
Experiment: Antimalarial activity against Plasmodium falciparum 3D7 assessed as inhibition of parasite growth
Type: functional, organism-based

Compound	EC50
O=C(Nc1ccc(Oc2ccc(Cl)cc2Cl)c(C(F)(F)F)c1)Nc1ccccc1Cc1ccccc1	0.5 µg/mL
O=C(Nc1cc(C(F)(F)F)ccc1Oc1ccc(Cl)cc1Cl)Nc1cccc2ccccc12	1200 nM
Clc1ccc(Oc2ccc(Cl)cc2NCc2ccccc2)c(Cl)c1	9700 nM
O=C(Nc1ccc([N+](=O)[O-])c(C(F)(F)F)c1)Nc1cc(C(F)(F)F)ccc1Oc1ccc(Cl)cc1Cl	72 nM
O=C(O)c1cc(Cl)ccc1Oc1ccc(Cl)cc1Cl	> 150000 nM
O=C(Nc1ccc(Cl)c(Cl)c1)Nc1cc(Cl)ccc1Oc1ccc(Cl)cc1Cl	1900 nM
NC(=O)c1cc(Cl)ccc1Oc1ccc(Cl)cc1Cl	73000 nM
O=C(Nc1ccc(-c2ccccc2)cc1)Nc1cc(C(F)(F)F)ccc1Oc1ccc(Cl)cc1Cl	0.29 µg/mL
O=C(Nc1ccc(Oc2ccc(Cl)cc2O)c(Cl)c1)N1CCOCC1	100000 nM
CN(C)c1ccc(NC(=O)Nc2cc(C(F)(F)F)ccc2Oc2ccc(Cl)cc2Cl)cc1	1.4 µg/mL
O=C(Nc1ccc2ccccc2c1)Nc1cc(C(F)(F)F)ccc1Oc1ccc(Cl)cc1Cl	610 nM
N#Cc1cccc(NC(=O)Nc2cc(C(F)(F)F)ccc2Oc2ccc(Cl)cc2Cl)c1	0.14 µg/mL
O=C(Nc1ccc(F)c(C(F)(F)F)c1)Nc1cc(C(F)(F)F)ccc1Oc1ccc(Cl)cc1Cl	130 nM
O=C(Nc1cc(Cl)cc(Cl)c1)Nc1cc(C(F)(F)F)ccc1Oc1ccc(Cl)cc1Cl	0.047 µg/mL
N#Cc1ccc(NC(=O)Nc2cc(C(F)(F)F)ccc2Oc2ccc(Cl)cc2Cl)cc1	0.14 µg/mL
O=C(Nc1cc(C(F)(F)F)ccc1Oc1ccc(Cl)cc1Cl)Nc1ccccc1-c1ccccc1	0.6 µg/mL
O=C(Nc1ccc2c(c1)OCO2)Nc1cc(C(F)(F)F)ccc1Oc1ccc(Cl)cc1Cl	1.1 µg/mL
O=C(Nc1cccnc1)Nc1cc(C(F)(F)F)ccc1Oc1ccc(Cl)cc1Cl	0.6 µg/mL
CC(=O)Nc1cc(Cl)ccc1Oc1ccc(Cl)cc1Cl	33000 nM
O=C(Nc1cccc(S(=O)(=O)C(F)(F)F)c1)Nc1cc(C(F)(F)F)ccc1Oc1ccc(Cl)cc1Cl	0.077 µg/mL
CC(C)(N)c1cc(Cl)ccc1Oc1ccc(Cl)cc1Cl	7200 nM
N#Cc1cc(Cl)ccc1Oc1ccc(Cl)cc1Cl	20000 nM
COc1ccc(NC(=O)Nc2cc(C(F)(F)F)ccc2Oc2ccc(Cl)cc2Cl)cc1C(F)(F)F	180 nM

Compound	EC50
NC(=O)Nc1ccc(Oc2ccc(Cl)cc2O)c(Cl)c1	100000 nM
O=C(Nc1ccc(Cc2ccccc2)cc1)Nc1cc(C(F)(F)F)ccc1Oc1ccc(Cl)cc1Cl	0.6 µg/mL
O=C(Nc1ccc(Cc2ccccc2)cc1)Nc1ccc(Oc2ccc(Cl)cc2Cl)c(C(F)(F)F)c1	1.3 µg/mL
N#Cc1ccc(NC(=O)Nc2cc(C(F)(F)F)ccc2Oc2ccc(Cl)cc2Cl)cc1C#N	81 nM
O=C(Nc1ccc(Cl)c(C(F)(F)F)c1)Nc1cc(C(F)(F)F)ccc1Oc1ccc(Cl)cc1Cl	37 nM
NC(=O)Nc1cc(Cl)ccc1Oc1ccc(Cl)cc1Cl	18000 nM
COc1cc(Cl)ccc1Oc1ccc(Cl)cc1Cl	100000 nM
Nc1cc(Cl)ccc1Oc1ccc(Cl)cc1Cl	52000 nM
Nc1ccc(NC(=O)Nc2cc(C(F)(F)F)ccc2Oc2ccc(Cl)cc2Cl)cc1C(F)(F)F	1500 nM
O=C(Nc1ccccc1)Nc1cc(Cl)ccc1Oc1ccc(Cl)cc1Cl	730 nM
O=C(Nc1cc(C(F)(F)F)ccc1Oc1ccc(Cl)cc1Cl)NC1c2ccccc2-c2ccccc21	0.8 µg/mL
NCc1cc(Cl)ccc1Oc1ccc(Cl)cc1Cl	2300 nM
O=C(Nc1ccc(Cl)c(Cl)c1)Nc1cc(C(F)(F)F)ccc1Oc1ccc(Cl)cc1Cl	200 nM
O=C(NCc1ccco1)Nc1cc(C(F)(F)F)ccc1Oc1ccc(Cl)cc1Cl	2.3 µg/mL
O=C(Nc1cc(C(F)(F)F)cc(C(F)(F)F)c1)Nc1cc(C(F)(F)F)ccc1Oc1ccc(Cl)cc1Cl	0.037 µg/mL
O=C(Nc1cc(C(F)(F)F)ccc1Oc1ccc(Cl)cc1Cl)Nc1cc(C(F)(F)F)ccc1N1CCCCC1	3.9 µg/mL
O=C(Nc1ccc(Cl)cc1)Nc1cc(Cl)ccc1Oc1ccc(Cl)cc1Cl	2000 nM
CN(C(=O)N(C)c1ccc(Cl)c(C(F)(F)F)c1)c1cc(Oc2ccc(Cl)cc2Cl)cc(C(F)(F)F)c1	1.8 µg/mL
CS(=O)(=O)Nc1cc(Cl)ccc1Oc1ccc(Cl)cc1Cl	38000 nM
N#Cc1ccc(NC(=O)Nc2cc(C(F)(F)F)ccc2Oc2ccc(Cl)cc2Cl)cc1C(F)(F)F	130 nM
O=S(=O)(Nc1cc(Cl)ccc1Oc1ccc(Cl)cc1Cl)c1ccccc1	4700 nM
O=C(Nc1cccc(Cc2ccccc2)c1)Nc1cc(C(F)(F)F)ccc1Oc1ccc(Cl)cc1Cl	0.3 µg/mL
O=C(Nc1cccc(Oc2ccccc2)c1)Nc1cc(C(F)(F)F)ccc1Oc1ccc(Cl)cc1Cl	0.3 µg/mL

System: Plasmodium falciparum
Experiment: Antimalarial activity against Plasmodium falciparum delta pfpm2 assessed as growth inhibition
Type: functional, organism-based

Compound	IC50	IC90
O=C(Nc1ccc(Cl)c(C(F)(F)F)c1)Nc1cc(C(F)(F)F)ccc1Oc1ccc(Cl)cc1Cl	70 nM	88 nM

System: not listed separately
Experiment: Inhibition of Plasmodium falciparum cysteine protease plasmepsin 2

Compound	IC50
N=C(N)c1ccc(NC(=O)Nc2ccc(Oc3ccccc3)cc2)cc1	17 µM

System: Plasmodium falciparum
Experiment: Antimalarial activity against Plasmodium falciparum delta pfpm4 assessed as growth inhibition
Type: functional, organism-based

Compound	IC50	IC90
O=C(Nc1ccc(Cl)c(C(F)(F)F)c1)Nc1cc(C(F)(F)F)ccc1Oc1ccc(Cl)cc1Cl	66 nM	86 nM

System: Plasmodium falciparum
Experiment: Antimalarial activity against Plasmodium falciparum W2 assessed as inhibition of parasite growth
Type: functional, organism-based

Compound	EC50
N=C(N)c1ccc(NC(=O)Nc2ccc(Oc3ccccc3)cc2)cc1	87 nM

System: Plasmodium berghei
Experiment: Antimalarial activity against Plasmodium berghei infected CD-1 mouse assessed as survival beyond 8 days at 256 mg/kg, sc bid
Type: functional, organism-based
Parameters: dose 256 mg/kg

Compound	Survival
O=C(Nc1cc(C(F)(F)F)ccc1Oc1ccc(Cl)cc1Cl)Nc1cccc2ccccc12	inactive
O=C(Nc1ccc(Cl)c(Cl)c1)Nc1cc(Cl)ccc1Oc1ccc(Cl)cc1Cl	inactive
O=C(Nc1ccc2ccccc2c1)Nc1cc(C(F)(F)F)ccc1Oc1ccc(Cl)cc1Cl	inactive
O=C(Nc1ccc(Cl)cc1)Nc1cc(Cl)ccc1Oc1ccc(Cl)cc1Cl	inactive

System: Plasmodium falciparum
Experiment: Antimalarial activity against Plasmodium falciparum D6 assessed as inhibition of parasite growth
Type: functional, organism-based

Compound	EC50
N=C(N)c1ccc(NC(=O)Nc2ccc(Oc3ccccc3)cc2)cc1	460 nM

System: Plasmodium berghei
Experiment: Antimalarial activity against Plasmodium berghei infected CD-1 mouse assessed as survival at 128 mg/kg, sc bid measured on day 31
Type: functional, organism-based
Parameters: dose 128 mg/kg

Compound	Survival
O=C(Nc1ccc(Cl)c(C(F)(F)F)c1)Nc1cc(C(F)(F)F)ccc1Oc1ccc(Cl)cc1Cl	inactive

System: Plasmodium falciparum
Experiment: Antimalarial activity against Plasmodium falciparum delta pfpm3 assessed as growth inhibition
Type: functional, organism-based

Compound	IC50	IC90
O=C(Nc1ccc(Cl)c(C(F)(F)F)c1)Nc1cc(C(F)(F)F)ccc1Oc1ccc(Cl)cc1Cl	35 nM	70 nM

System: Plasmodium berghei
Experiment: Antimalarial activity against Plasmodium berghei infected CD-1 mouse assessed as survival beyond 8 days at 128 mg/kg, sc bid
Type: functional, organism-based
Parameters: dose 128 mg/kg

Compound	Survival
O=C(Nc1ccc(Cl)c(C(F)(F)F)c1)Nc1cc(C(F)(F)F)ccc1Oc1ccc(Cl)cc1Cl	Active
